From US4450269A, “Mono-5-substituted-3-chloro-4H-1,2,6-thiadiazin-4-one antifungal agents” (FMC Corporation, priority 1980, dated 1984)
Structures can show the parent of a compound that is named as a salt.

Assays:
Uromyces phaseoli = test: whole plant or invertebrate; conditions: foliar, 24 h, read-out: Percent Disease Control, curative, bean rust
Fusarium solani = test: Mycelial growth test; type: cell-based; conditions: for inhibition at 5 ppm / inhibition at 10 ppm / inhibition at 20 ppm / inhibition at 40 ppm: Fusarium solani, 72 h; for inhibition at 5 ppm / inhibition at 10 ppm / inhibition at 20 ppm / Percent Fungus Growth Inhibition: PS, 72 hours; for inhibition at 5 ppm / inhibition at 10 ppm / inhibition at 20 ppm: read-out: Percent Fungus Growth Inhibition; for inhibition at 40 ppm: read-out: Percent Fungus Growth Inhibition, PS, 40 ppm, 72 hours

| Compound | pest or weed control at 150 ppm (Uromyces phaseoli) [%] | inhibition at 5 ppm (Fusarium solani; 5 ppm) [%] | inhibition at 10 ppm (Fusarium solani; 10 ppm) [%] | inhibition at 20 ppm (Fusarium solani; 20 ppm) [%] | inhibition at 40 ppm (Fusarium solani) [%] | Percent Fungus Growth Inhibition (Fusarium solani; 5 ppm) [%] | Percent Fungus Growth Inhibition (Fusarium solani; 10 ppm) [%] | Percent Fungus Growth Inhibition (Fusarium solani; 20 ppm) [%] | Percent Fungus Growth Inhibition (Fusarium solani; 40 ppm) [%] | Percent Fungus Growth Inhibition (Fusarium solani; 10 ppm, hydrochloride) [%] | Percent Fungus Growth Inhibition (Fusarium solani; 20 ppm, hydrochloride) [%] |
| --- | --- | --- | --- | --- | --- | --- | --- | --- | --- | --- | --- |
| O=c1c(Cl)nsnc1Oc1ccc(F)cc1 [Compound 11, 3-chloro-5-(4-fluorophenoxy)-4H--1,2,6-thiadiazin-4-one] | 0 | 17 | 33 | 83 | 75 | – | – | – | – | – | – |
| CC(=O)c1cccc(Oc2nsnc(Cl)c2=O)c1 [Compound 48, 3-(3-acetylphenoxy)-5-chloro-4H--1,2,6-thiadiazin-4-one] | 0 | 38 | 50 | 100 | 100 | – | – | – | – | – | – |
| Cc1cc(Cl)ccc1Oc1nsnc(Cl)c1=O [Compound 55, 3-chloro-5-(4-chloro-2-methylphenoxy)-4H--1,2,6-thiadiazin-4-one] | 0 | 0 | 13 | 17 | 20 | – | – | – | – | – | – |
| Cc1cc(Oc2nsnc(Cl)c2=O)cc(C)c1Cl [Compound 59, 3-chloro-5-[(4-chloro-3,5-dimethyl)phenoxy]-4H--1,2,6-thiadiazin-4-one] | 0 | 50 | 56 | 69 | 56 | – | – | – | – | – | – |
| CC(=O)c1ccc(Oc2nsnc(Cl)c2=O)cc1 [Compound 47, 3-(4-acetylphenoxy)-5-chloro-4H--1,2,6-thiadiazin-4-one] | 0 | 38 | 50 | 100 | 100 | – | – | – | – | – | – |
| Cc1ccc(Oc2nsnc(Cl)c2=O)cc1 [Compound 3, 3-chloro-5-(4-methylphenoxy)-4H--1,2,6-thiadiazin-4-one] | 0 | 35 | 53 | 65 | 65 | – | – | – | – | – | – |
| O=c1c(Cl)nsnc1Oc1c(Cl)cc(Cl)cc1Cl [Compound 30, 3-chloro-5-(2,4,6-trichlorophenoxy)-4H--1,2,6-thiadiazin-4-one] | 0 | 52 | 81 | 90 | 100 | – | – | – | – | – | – |
| CC(=O)c1ccccc1Oc1nsnc(Cl)c1=O [Compound 49, 3-(2-acetylphenoxy)-5-chloro-4H--1,2,6-thiadiazin-4-one] | 0 | 0 | 7 | 34 | 67 | – | – | – | – | – | – |
| O=c1c(Cl)nsnc1Oc1ccc(Cl)c(Cl)c1 [Compound 16, 3-chloro-5-(3,4-dichlorophenoxy)-4H--1,2,6-thiadiazin-4-one] | 0 | 53 | 47 | 47 | 41 | – | – | – | – | – | – |
| COc1ccc(Cl)c(Oc2nsnc(Cl)c2=O)c1 [Compound 51, 3-chloro-5-[(2-chloro-5-methoxy)phenoxy]-4H--1,2,6-thiadiazin-4-one] | 0 | 60 | 85 | 100 | 100 | – | – | – | – | – | – |
| CC(C)(C)c1ccc(Oc2nsnc(Cl)c2=O)cc1 [Compound 4, 3-chloro-5-(4-tert-butylphnoxy)-4H--1,2,6-thiadiazin-4-one] | 75 | 0 | 0 | 0 | 8 | – | – | – | – | – | – |
| CCOC(=O)c1ccc(Oc2nsnc(Cl)c2=O)cc1 [Compound 7, 3-chloro-5-(4-ethoxycarbonylphenoxy)-4H--1,2,6-thiadiazin-4-one] | 0 | 42 | 54 | 69 | 88 | – | – | – | – | – | – |
| Cc1ccccc1Oc1nsnc(Cl)c1=O [Compound 22, 3-chloro-5-(2-methylphenoxy)-4H--1,2,6-thiadiazin-4-one] | 0 | 17 | 67 | 83 | 100 | – | – | – | – | – | – |
| N#CCc1ccc(Oc2nsnc(Cl)c2=O)cc1 [Compound 46, 3-chloro-5-[(4-cyanomethyl)-phenoxy]4H--1,2,6-thiadiazin-4-one] | 0 | 35 | 70 | 90 | 100 | – | – | – | – | – | – |
| O=C(OCc1ccccc1)Oc1ccc(Oc2nsnc(Cl)c2=O)cc1 [Compound 38, 3-chloro-5-[4-(phenylmethoxycarbonyloxy)phenoxyl]-4H-1,2,6-thiadiazin-4-one] | 100 | 10 | 20 | 30 | 35 | – | – | – | – | – | – |
| O=c1c(Cl)nsnc1Oc1ccc([N+](=O)[O-])cc1Cl [Compound 53, 3-chloro-5-(2-chloro-4-nitrophenoxy)-4H--1,2,6-thiadiazin-4-one] | 0 | 42 | 68 | 100 | 100 | – | – | – | – | – | – |
| Cc1cccc(Oc2nsnc(Cl)c2=O)c1 [Compound 21, 3-chloro-5-(3-methylphenoxy)-4H--1,2,6-thiadiazin-4-one] | 0 | 33 | 62 | 58 | 100 | – | – | – | – | – | – |
| O=c1c(Cl)nsnc1Oc1cccc(C(F)(F)F)c1 [Compound 44, 3-chloro-5-[(3-trifluoromethyl)phenoxy]-4H--1,2,6-thiadiazin-4-one] | 0 | 100 | 100 | 100 | 100 | – | – | – | – | – | – |
| O=c1c(Cl)nsnc1Oc1ccc([N+](=O)[O-])cc1 [Compound 9, 3-chloro-5-(4-nitrophenoxy)-4H--1,2,6-thiadiazin-4-one] | 0 | 65 | 76 | 53 | 100 | – | – | – | – | – | – |
| O=c1c(Cl)nsnc1Oc1ccccc1Cl [Compound 14, 3-chloro-5-(2-chlorophenoxy)-4H--1,2,6-thiadiazin-4-one] | 100 | 44 | 100 | 100 | 100 | – | – | – | – | – | – |
| 3-chloro-5-(bromophenoxy)-4H-1,2,6-thiadiazin-4-one [Compound 33] | – | – | – | – | – | 3 | 33 | 53 | 93 | – | – |
| CC(=O)Nc1ccccc1Oc1nsnc(Cl)c1=O [Compound 43, 3-[(2-acetylamino)-phenoxy]-5-chloro-4H--1,2,6-thiadiazin-4-one] | 0 | 0 | 0 | 0 | 0 | – | – | – | – | – | – |
| COc1ccc(Oc2nsnc(Cl)c2=O)cc1 [Compound 5, 3-chloro-5-(4-methoxyphenoxy)4H--1,2,6-thiadiazin-4-one] | 0 | 18 | 35 | 6 | 71 | – | – | – | – | – | – |
| COc1cc(Cl)cc(Oc2nsnc(Cl)c2=O)c1 [Compound 52, 3-chloro-5-[(3-chloro-5-methoxy)phenoxy]-4H--1,2,6-thiadiazin-4-one] | 0 | 80 | 90 | 100 | 100 | – | – | – | – | – | – |
| O=c1c(Cl)nsnc1Oc1cccc(Cl)c1 [Compound 13, 3-chloro-5-(3-chlorophenoxy)-4H--1,2,6-thiadiazin-4-one] | 90 | 38 | 50 | 72 | 100 | – | – | – | – | – | – |
| Cc1cccc(C)c1Oc1nsnc(Cl)c1=O [Compound 24, 3-chloro-5-(2,6-dimethylphenoxy)-4H--1,2,6-thiadiazin-4-one] | 0 | 33 | 83 | 100 | 100 | – | – | – | – | – | – |
| Nc1ccc(Oc2nsnc(Cl)c2=O)cc1 [Compound 27, 5-(4-aminophenoxy)-3-chloro-4H--1,2,6-thiadiazine-4-one hydrochloride] | – | – | – | – | – | – | – | – | – | 8 | 13 |
